# From patent publication US10342823B2, “Topical and oral formulations comprising taurine and magnesium for the prevention and treatment of acne” (priority 2015, dated 2019)
# Tests used:
# acne = assay: Study Volunteer experiences with oral taurine-magnesium treatment regimens; type: in vivo, human; settings: for Treatment Outcome: TAU 1500 mg/day, Mg 0
# Source text: The following non-limiting examples show Study Volunteer experiences with various taurine-magnesium treatment regimens. Volunteers were listed in the chronological order of the start of their taking full daily doses of taurine with magnesium.
# Severity of acne was the following: Volunteers 1 and 2 had sporadic mild acne, Volunteers 3 and 4 had chronic cyclic mild acne, Volunteer 5 had chronic acne that appeared to be between mild and moderate, Volunteer 6 had chronic severe acne with scarring, Volunteer 7 had chronic moderate acne, Volunteer 8 had frequent mild acne, and Volunteer 9 had acne that appeared to be between mild and moderate.
# The data provided in the Examples support the surprising conclusion that relatively high doses of taurine together with magnesium provide excellent treatment and in some cases prevention of mild to severe acne. […] As described in the Examples, some Volunteers, in addition to taking their recommended supplements of taurine and magnesium, for some weeks or months took other micronutrient supplements or even a multivitamin/mineral supplement containing an extra low dose of magnesium.
# LXR-alpha = molecular target: T1, LXR-alpha (Homo sapiens, UniProt Q13133); settings: liver cells in vitro; cited from earlier work
# T1 construct: host or cells: liver cells in vitro
# T1 sequence (Q13133 1-447): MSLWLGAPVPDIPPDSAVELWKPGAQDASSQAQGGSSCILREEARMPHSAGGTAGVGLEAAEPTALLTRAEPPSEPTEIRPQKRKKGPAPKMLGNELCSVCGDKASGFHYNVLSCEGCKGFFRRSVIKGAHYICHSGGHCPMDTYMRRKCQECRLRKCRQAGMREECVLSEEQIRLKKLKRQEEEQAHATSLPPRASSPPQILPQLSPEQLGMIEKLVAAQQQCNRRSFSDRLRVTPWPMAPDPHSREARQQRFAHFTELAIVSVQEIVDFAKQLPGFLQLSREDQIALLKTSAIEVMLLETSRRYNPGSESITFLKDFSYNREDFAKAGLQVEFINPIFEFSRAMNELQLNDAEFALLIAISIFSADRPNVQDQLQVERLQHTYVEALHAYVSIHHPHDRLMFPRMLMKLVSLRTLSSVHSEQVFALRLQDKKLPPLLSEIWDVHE
smiles,measurement,setting,value
NCCS(=O)(=O)O [taurine],Treatment Outcome,"acne; Volunteer 2, mild acne with noticeable lesions, 5 days",No improvement
same,Improvement of acne lesions,"acne; Volunteer 2, taurine alone 1.5 g daily, 5 days",no improvement
same,Treatment Outcome,"acne; Volunteer 4, mild acne, break-out lesions with menstrual period, 7 days",Slight
same,Improvement of acne,"acne; Volunteer 4, taurine only, first week",slight improvement
same,Cellular lipid levels,LXR-alpha,dose-dependent marked reduction
same,LXR-alpha ligand activity / lipogenesis,LXR-alpha,ligand of LXR-alpha that inhibits lipogenesis
